Laboratory results taken from PMC7534598 (iScience, 2020).

Tests used:
[1] = molecular target: T1, furin (Homo sapiens, UniProt P09958); assay type: biochemical
[2] = molecular target: T1, furin; assay: enzyme inhibition at a single concentration of […]; assay type: biochemical; details: read-out: % inhibition at 100 μM

T1 sequence (P09958 108-794): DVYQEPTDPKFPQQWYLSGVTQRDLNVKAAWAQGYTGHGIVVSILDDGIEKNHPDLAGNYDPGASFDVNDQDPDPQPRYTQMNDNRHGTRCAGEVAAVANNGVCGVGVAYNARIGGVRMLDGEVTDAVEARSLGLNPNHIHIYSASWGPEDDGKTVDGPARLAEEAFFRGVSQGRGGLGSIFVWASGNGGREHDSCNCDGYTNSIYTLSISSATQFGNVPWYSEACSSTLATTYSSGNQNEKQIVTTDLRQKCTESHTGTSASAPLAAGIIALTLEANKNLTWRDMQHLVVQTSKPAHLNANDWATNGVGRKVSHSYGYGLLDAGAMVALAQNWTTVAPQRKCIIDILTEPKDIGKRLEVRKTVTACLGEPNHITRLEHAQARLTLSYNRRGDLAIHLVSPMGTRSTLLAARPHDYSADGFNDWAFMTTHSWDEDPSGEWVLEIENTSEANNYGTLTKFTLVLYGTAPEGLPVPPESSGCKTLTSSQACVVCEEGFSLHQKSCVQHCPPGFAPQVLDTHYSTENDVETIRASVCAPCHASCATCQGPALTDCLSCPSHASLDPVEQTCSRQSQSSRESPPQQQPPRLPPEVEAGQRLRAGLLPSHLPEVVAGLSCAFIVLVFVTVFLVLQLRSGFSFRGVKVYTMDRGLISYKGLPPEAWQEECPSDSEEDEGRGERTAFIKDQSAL

SMILES	IC50 [1]	inhibition at 100 µM [2]
N=C(N)c1ccc(/N=N/Nc2ccc(C(=N)N)cc2)cc1 [diminazene]	5.42 ± 0.11 µM	
CN(Cc1cnc2nc(N)nc(N)c2n1)c1ccc(C(=O)N[C@@H](CCC(=O)O)C(=O)O)cc1 [methotrexate]		> 70%
COc1cc(C2Oc3cc([C@H]4Oc5cc(O)cc(O)c5C(=O)[C@@H]4O)ccc3OC2CO)ccc1O (stereo partly shown) [silybin]		> 70%
Nc1nc(N)c2nc(CNc3ccc(C(=O)N[C@@H](CCC(=O)O)C(=O)O)cc3)cnc2n1 [aminopterin]		> 70%
